Tests used:
Assay in all cases: In vitro anticancer activity test (MTT cell proliferation assay)
Format in all cases: cell-based
[1] = system: human breast cancer cell MCF-7; conditions: MCF7
Procedure: The anticancer activity of the compounds was tested using an in vitro cancer cell tests. The specific test method is as follows: • 1. Cell recovery and culture method: the cryovial was taken out from the liquid nitrogen container firstly, soaked directly in 37°C warm water, and shaked from time to time to let it thaw as soon as possible. Then, the cryovial was transferred to a clean bench, and the lid was open. […] Then, the supernatant was discarded, complete culture medium containing 10% fetal bovine serum was added to resuspend the cells, the cells was counted, the cell density was adjusted, and then inoculated into a culture bottle. The culture bottle was placed in a cell culture incubator at 5% CO2 and 37°C. The complete culture medium was replaced once the next day and the culture was continued. • 2. Cell passaging method: adherent cells in the logarithmic growth phase were placed in a clean bench, the original culture medium was discarded, and washed three times with 1×PBS. An appropriate amount of 0.25% trypsin digestion solution was added to moisten the cells, and then the trypsin solution was aspirated. […] When 90% of the cells become round, the cells were moved immediately to the clean bench and complete culture medium was added to terminate digestion. Then, the cells were dislodged by pipetting up and down with a rubber-tipped dropper to single cells. The cells were counted, and the cell density was adjusted. The cells were inoculated into a suitable culture bottle or dish, added enough complete culture medium, and placed in a cell culture incubator at 5% CO2 and 37°C for static culture. For suspension cells in the logarithmic phase, the original culture medium was directly centrifuged at 50g for 5 minutes, the supernatant was discarded, and the cells were washed once with PBS and centrifuged. After discarding the supernatant, the complete culture medium was added and the cells were dispersed using a rubber-tipped dropper. The cells are counted, and the cell density was adjusted. […]

[2] = system: human breast cancer cell MFM223; conditions: MFM-223
Procedure: (§1) The anticancer activity of the compounds was tested using an in vitro cancer cell tests. The specific test method is as follows: • 1. Cell recovery and culture method: the cryovial was taken out from the liquid nitrogen container firstly, soaked directly in 37°C warm water, and shaked from time to time to let it thaw as soon as possible. Then, the cryovial was transferred to a clean bench, and the lid was open. The cell suspension was taken into a centrifuge tube using a rubber-tipped dropper and more than 10 times the culture medium was added, mixed well, and centrifuged at 50g for 5 minutes. Then, the supernatant was discarded, complete culture medium containing 10% fetal bovine serum was added to resuspend the cells, the cells was counted, the cell density was adjusted, and then inoculated into a culture bottle. The culture bottle was placed in a cell culture incubator at 5% CO2 and 37°C. The complete culture medium was replaced once the next day and the culture was continued. • 2. Cell passaging method: adherent cells in the logarithmic growth phase were placed in a clean bench, the original culture medium was discarded, and washed three times with 1×PBS. An appropriate amount of 0.25% trypsin digestion solution was added to moisten the cells, and then the trypsin solution was aspirated. The cells were placed in a cell culture incubator at 5% CO2 and 37°C for digestion for a suitable time, and observed under a microscope. When 90% of the cells become round, the cells were moved immediately to the clean bench and complete culture medium was added to terminate digestion. Then, the cells were dislodged by pipetting up and down with a rubber-tipped dropper to single cells. The cells were counted, and the cell density was adjusted. The cells were inoculated into a suitable culture bottle or dish, added enough complete culture medium, and placed in a cell culture incubator at 5% CO2 and 37°C for static culture. For suspension cells in the logarithmic phase, the original culture medium was directly centrifuged at 50g for 5 minutes, the supernatant was discarded, and the cells were washed once with PBS and centrifuged. After discarding the supernatant, the complete culture medium was added and the cells were dispersed using a rubber-tipped dropper. The cells are counted, and the cell density was adjusted. The cells were inoculated into appropriate culture bottles or culture dishes, and sufficient complete culture medium was added, and the cells were cultured in a cell culture incubator at 5% CO2 and 37°C. • 3. Cell proliferation assay: cells in good state in logarithmic phase were taken and appropriate amount of the cells was inoculated into 96-well plates according to the cell passage treatment method, with each well containing 180 µL complete medium. After the cells growth was recovered and the number of cells in each well is 5000±500, a drug was added for treatment. After drug treatment during the experimental time, MTT solution with a final concentration of 0.5 mg/mL was added to each well, and placed in a cell culture incubator at 5% CO2 and 37°C to allow a fully reaction of MTT with cells. After 4 hours, the solution in the 96-well plate was discarded, 100 µL of DMSO was added, and shaked to dissolve the formazan precipitated at the bottom of the plate, and the absorbance value of samples was detected at a wavelength of 570 nm using a microplate reader. Calculation method of cell viability rate: Viability rate = A sample group÷A control group × 100% [formula] • 4. Cell photography step: cells in good state in logarithmic phase were taken and an appropriate amount of cells was inoculated into 96-well plates according to the cell passage treatment method, with each well containing 180 µL complete medium. After the cells growth was recovered and the number of cells in each well is 5000 ± 500, a drug was added for treatment. […]

Hela = conditions: Homo sapiens
Procedure: as §1

[3] = system: human colon cancer cell HCT 116
Procedure: as §1

[4] = system: human liver cancer cell HepG2
Procedure: as §1

[5] = system: human gastric cancer cell MGC-803
Procedure: as §1

[6] = system: pancreatic cancer cell PNAC-1
Procedure: as §1

[7] = system: human non-small cell lung cancer cell A549
Procedure: as §1

[8] = system: human malignant melanoma cell A375; conditions: A-375
Procedure: as §1

Row | Compound | IC50 [1] | IC50 [2] | IC50 (Hela) | IC50 [3] | IC50 [4] | IC50 [5] | IC50 [6] | IC50 [7] | IC50 [8] | inhibition at 40 µM (Hela; average proliferation inhibition rate at the dosage of 40 µM)
1 | O=C(O)c1cn(C2CC2)c2cc(N3CCNCC3)c(F)cc2c1=O [Ciprofloxacin] | > 100 µM | > 100 µM | > 100 µM | > 100 µM | > 100 µM | > 100 µM | > 100 µM | > 100 µM | > 100 µM | 
2 | O=C(O)c1cn(C2CC2)c2c(Cl)c(-c3ccc(S(=O)(=O)NCCCC(F)(F)F)nc3)c(F)cc2c1=O [Example 29, 8-chloro-1-cyclopropyl-6-fluoro-4-oxo-7-(6-(N-(4,4,4-trifluorobutyl)sulfamoyl)pyridin-3-yl)-1,4-dihydroquinolin-3-carboxylic acid] | 1 to 10 µM | 1 to 10 µM | 1 to 10 µM | 1 to 10 µM | 1 to 10 µM | 1 to 10 µM | 1 to 10 µM | 1 to 10 µM | 1 to 10 µM | ≥ 50%
3 | CCN(CC)CCNC(=O)c1c(C)[nH]c(/C=C2\C(=O)Nc3ccc(F)cc32)c1C [Sunitinib] | 3.2 ± 0.3 µM | 10.2 ± 3.8 µM | 12 ± 2 µM | 20.7 ± 4.6 µM | 9.6 ± 2.1 µM | 17.5 ± 2.4 µM | 22.4 ± 5.2 µM | 12.9 ± 10.2 µM | 19.2 ± 4.6 µM | 

— patent EP4644391A1, “NOVEL PHENYLQUINOLONE COMPOUND HAVING ANTIBACTERIAL AND ANTICANCER FUNCTIONS, AND PREPARATION THEREOF” (Alphamol Science Ltd (Shanghai), priority 2022, dated 2024)
